This is an account of results in patent US20080026084A1, “Method and composition for management of weight and blood sugar” (PhytoMyco Research Corporation, priority 2006, published 2008).

The conditions of test [1]: in vivo; cited from earlier work.
Another test relates to 3T3-L1 cells. Description: assays of this invention (lipolysis, inhibition of adipocyte differentiation, de-differentiation, leptin secretion). It counts as cell-based, mouse. From the text:
Method i): Oil Red O staining which stains fat droplets in fat cells and thereby gives a directly related indication of the level of adipogenesis as a function of the amount of staining of fat droplets.
Method ii): GPDH or […] is a key enzyme involved in the pathway of triglyceride synthesis in the glycolytic pathway. Adipocytes express highlevels of this enzyme. Therefore, a reduction in GPDH levels is indicative of inhibition of adipogenesis (prevention of fat accumulation in cells).
Method iii): Assay to observe de-differentiation of adipocytes to preadipocytes can be used to detect compounds and mixtures of compounds that are capable of breaking down existing stores of body fat. This assay identifies compounds and mixtures of compounds than induce the […] of adipocytes to preadipocytes and is quantitatively assessed by developing a color response using Oil Red O staining or by measuring GPDH levels as in methods i) and ii), respectively. Such compounds and mixtures of compounds as extracts of plants can have a direct effect on reducing weight because they cause fat cells to become non-fat cells (preadipocytes).
Method iv) Leptin Secretion assay can be used to determine the presence of leptin which is a product of the Ob gene. It is a hormone secreted by mature adipocytes that plays a role in regulating body fat storage. High levels of leptin circulating in the blood indicate hormonally that energy stores are high, and therefore mitigate the need for further food intake. Compounds or mixtures of compounds of this invention that increase leptin secretion can be administered orally to an overweight or obese person to reduce appetite in that person, and therefore to reduce food intake by that person.
In this assay, pre-adipocyte cells are seeded in 96-well plates and are induced to convert to adipocytes over the course of a 10-15 day treatment with […] reagents. After cells have converted to adipocytes, the cells are starved, and then subsequently treated with or exposed to test compounds or mixtures of compounds or extracts of plants or fractionated extracts of plants. The adipocytes are treated with test compounds in the presence of a surrounding cell medium. Over the course of 1 to 3 hours after exposure to the test compounds or mixture of compounds, the amount of glycerol present in the cell medium is measured. Glycerol and fatty acids are hydrolysis products of triglycerides, and glycerol is released from cells after enzymatic hydrolysis or breakdown of lipids. Results are expressed as a percentage of the amount of glycerol present detected in a reference assay comprising an untreated control. Untreated controls are cells that are treated with vehicle only (such as 100% DMSO).
Inhibition of adipocyte differentiation is assayed by measuring the levels of the enzyme glycerol-3-phosphate dehydrogenase (GPDH). GPDH is involved in the pathway of triglyceride synthesis in the glycolytic pathway. Colorimetric assays can be used to screen for compounds and mixtures of compounds than inhibit the differentiation of preadipocytes to adipocytes. Oil Red O is a colorimetric assay that can be used to stain lipids in adipocytes.
In this assay pre-adipocyte cells require 10 to 15 days to differentiate into adipocytes. […] After cells have undergone the 10-15 days required to differentiate, cells are assessed for GPDH activity.
Results are expressed as a percentage of the untreated control average. […]

On to `CCCCCCCCCCC[C@@H](C[C@@H]1OC(=O)[C@H]1CCCCCC)OC(=O)[C@H](CC(C)C)NC=O` [Orlistat], for which, in test [1], the “decrease of the amount of fat absorbed from the diet” value is listed as “about 30%”.

`CC(=O)OC(C)(C)/C=C/C(=O)[C@](C)(O)[C@H]1[C@H](O)C[C@@]2(C)[C@@H]3CC=C4[C@H](C[C@H](O)C(=O)C4(C)C)[C@]3(C)C(=O)C[C@]12C` [cucurbitacin B]: the “activity in the assays of this invention” value in the test on 3T3-L1 cells is “active”.

In the case of `CC(C)(O)/C=C/C(=O)[C@](C)(O)[C@H]1[C@H](O)C[C@@]2(C)[C@@H]3CC=C4[C@@H](C[C@H](O)C(=O)C4(C)C)[C@]3(C)C(=O)C[C@]12C` [cucurbitacin D], in the test with 3T3-L1 cells, the “activity in the assays of this invention” value is on record as “active”.

On to Cephalandrine A, for which the “activity in the assays of this invention” value with 3T3-L1 cells is on record as “active”.

For the molecule Cephalandrine B, the “activity in the assays of this invention” value in the test on 3T3-L1 cells is on record as “active”.

For the molecule Cephalandrol, the “activity in the assays of this invention” value in the test on 3T3-L1 cells is reported as “active”.
